Experimental data from the CheMixHub ionic liquid set.

Assay: xn = mol fraction of the nth substance listed

CCOS(=O)(=O)[O-].CC[n+]1ccn(C)c1 + CCO + O
298.15 K, 101 kPa
Conditions	viscosity [mPa·s]
x2 = 0.0425, x3 = 0.9493	1.473
x2 = 0.0462, x3 = 0.9365	1.767
x2 = 0.054, x3 = 0.9172	2.239
x2 = 0.0603, x3 = 0.8923	2.787
x2 = 0.0723, x3 = 0.8613	3.311
x2 = 0.0829, x3 = 0.8208	4.237
x2 = 0.0885, x3 = 0.9037	2.015
x2 = 0.0898, x3 = 0.1724	43.71
x2 = 0.0906, x3 = 0.3653	26.4
x2 = 0.1018, x3 = 0.8819	2.162
x2 = 0.1162, x3 = 0.8569	2.603
x2 = 0.1307, x3 = 0.8254	2.848
x2 = 0.1473, x3 = 0.8454	2.302
x2 = 0.1532, x3 = 0.7862	3.265
x2 = 0.1618, x3 = 0.823	2.558
x2 = 0.1776, x3 = 0.736	3.981
x2 = 0.1798, x3 = 0.7952	2.666
x2 = 0.1867, x3 = 0.3267	19.71
x2 = 0.203, x3 = 0.4762	11.23
x2 = 0.2036, x3 = 0.7562	3.061
x2 = 0.213, x3 = 0.6721	4.695
x2 = 0.2156, x3 = 0.7777	2.443
x2 = 0.2354, x3 = 0.7098	3.148
x2 = 0.2358, x3 = 0.7503	2.537
x2 = 0.2581, x3 = 0.7192	2.751
x2 = 0.2884, x3 = 0.6757	2.836
x2 = 0.2972, x3 = 0.6968	2.342
x2 = 0.3097, x3 = 0.4125	8.578
x2 = 0.3172, x3 = 0.5831	4.026
x2 = 0.3196, x3 = 0.668	2.391
x2 = 0.3235, x3 = 0.6281	3.109
x2 = 0.3439, x3 = 0.6361	2.653
x2 = 0.3528, x3 = 0.1226	18.65
x2 = 0.354, x3 = 0.5781	3.217
x2 = 0.3804, x3 = 0.5884	2.55
x2 = 0.3862, x3 = 0.6086	2.334
x2 = 0.4044, x3 = 0.3559	6.856
x2 = 0.4138, x3 = 0.5756	2.347
x2 = 0.4195, x3 = 0.5389	2.799
x2 = 0.4403, x3 = 0.5426	2.299
x2 = 0.4582, x3 = 0.4849	2.967
x2 = 0.4657, x3 = 0.1012	12.87
x2 = 0.4793, x3 = 0.4944	2.444
x2 = 0.4911, x3 = 0.5046	2.027
x2 = 0.521, x3 = 0.4447	2.385
x2 = 0.5486, x3 = 0.4376	2.109
x2 = 0.5636, x3 = 0.3905	2.443
x2 = 0.6042, x3 = 0.159	5.533
x2 = 0.6339, x3 = 0.3399	1.976
x2 = 0.6484, x3 = 0.2101	3.5
x2 = 0.6523, x3 = 0.3414	1.735
x2 = 0.6548, x3 = 0.0654	6.067
x2 = 0.6675, x3 = 0.2976	2.007
x2 = 0.7086, x3 = 0.2767	1.737
x2 = 0.7178, x3 = 0.241	2.045
x2 = 0.7723, x3 = 0.2038	1.728
x2 = 0.8545, x3 = 0.0276	2.451
x2 = 0.8653, x3 = 0.125	1.406
x2 = 0.9072, x3 = 0.0792	1.343
x2 = 0.9667, x3 = 0.0134	1.317

CCCC[n+]1ccn(C)c1C.F[B-](F)(F)F + CC[N+](C)(CC)CCOC.F[B-](F)(F)F
100 kPa, x2 = 0
Conditions	electrical conductivity [S/m]
333.15 K	0.335
338.15 K	0.447
343.15 K	0.53
348.15 K	0.63

CCCCn1cc[n+](CCOCCOCCOCC[n+]2ccn(CCCC)c2)c1.O=S(=O)([N-]S(=O)(=O)C(F)(F)F)C(F)(F)F.O=S(=O)([N-]S(=O)(=O)C(F)(F)F)C(F)(F)F + CC[n+]1ccn(C)c1.N#C[N-]C#N + O=S(=O)([N-]S(=O)(=O)C(F)(F)F)C(F)(F)F.[Li+]
100 kPa, x1 = 0.1386, x2 = 0.7575
Conditions	electrical conductivity [S/m]
298 K	0.61
303 K	0.773
313 K	0.902
323 K	1.18
333 K	1.51
344 K	1.89

CCOS(=O)(=O)[O-].CC[n+]1ccn(C)c1 + CC[n+]1ccn(C)c1.N#C[S-]
Conditions	viscosity [mPa·s]
353.15 K, 100 kPa, x2 = 0	15

CCOS(=O)(=O)[O-].CC[n+]1ccn(C)c1 + CC[n+]1ccn(C)c1.O=S(=O)([N-]S(=O)(=O)C(F)(F)F)C(F)(F)F
Conditions	viscosity [mPa·s]
298.15 K, 100 kPa, x2 = 0	100.6

[I-].[Li+] + CC[n+]1ccn(C)c1.O=S(=O)([N-]S(=O)(=O)C(F)(F)F)C(F)(F)F
electrical conductivity [S/m], 101 kPa
Conditions	x2 = 0.8099	x2 = 0.8475	x2 = 0.8826	x2 = 0.9207	x2 = 0.9587
288.15 K	–	0.225	0.294	0.385	0.497
298.15 K	0.286	0.376	0.473	0.602	0.744
333.15 K	1.06	1.25	1.43	1.66	1.94

[I-].[Li+] + CC[n+]1ccn(C)c1.O=S(=O)([O-])C(F)(F)F
electrical conductivity [S/m], 101 kPa
Conditions	288.15 K	298.15 K	333.15 K
x1 = 0.007746	0.575	0.843	2.22
x1 = 0.01537	0.548	0.817	2.15
x2 = 0.9746	0.556	0.827	2.17

NCCOCCO + CN1CCCC1=O + CCCC[n+]1ccn(C)c1.O=S(=O)([N-]S(=O)(=O)C(F)(F)F)C(F)(F)F
viscosity [mPa·s], 101 kPa
Conditions	293.15 K	298.15 K	303.15 K	308.15 K	313.15 K	318.15 K	323.15 K	328.15 K	333.15 K
x1 = 0.2949, x2 = 0.6792	5.359	4.682	4.146	3.69	3.316	3.017	2.747	2.523	2.335
x1 = 0.3615, x2 = 0.5637	8.078	6.927	6.008	5.26	4.651	4.139	3.714	3.359	3.062
x1 = 0.4113, x2 = 0.453	12.21	10.27	8.74	7.52	6.54	5.736	5.069	4.517	4.053

CC(=O)[O-].Cn1cc[nH+]c1 + COS(=O)(=O)[O-].Cn1cc[n+](C)c1
298.15 K, 100 kPa
Conditions	viscosity [mPa·s]
x1 = 0.1	90.2
x1 = 0.19	77.2
x1 = 0.31	56.3
x1 = 0.4	40.7
x1 = 0.5	35.3
x1 = 0.59	27.7

CCOS(=O)(=O)[O-].CC[n+]1ccn(C)c1 + CS(C)=O
101 kPa, x1 = 0.3333
Conditions	viscosity [mPa·s]
288.15 K	3.92
293.15 K	3.53
313.15 K	2.26
348.15 K	1.27

CC[NH+](CC)CC.O=P([O-])(O)O + CS(C)=O
viscosity [mPa·s], 101 kPa
Conditions	298.15 K	303.15 K	308.15 K
x2 = 0	64.3	57.1	49.5
x2 = 0.0242	61.3	54.6	47.55
x2 = 0.0507	58.2	51.7	45.51
x2 = 0.1295	49.7	44.43	39.41
x2 = 0.1963	43.47	38.82	34.74
x2 = 0.2596	37.82	34.13	30.67
x2 = 0.3272	32.61	29.61	26.81
x2 = 0.3878	28.47	26.13	23.64
x2 = 0.4494	24.64	22.94	20.75
x2 = 0.5141	21.1	19.68	17.92
x2 = 0.5888	17.29	16.43	14.93
x2 = 0.6387	15	14.42	13.14
x2 = 0.7055	12.26	11.95	10.82
x2 = 0.7616	10.18	9.98	9.01
x2 = 0.8342	7.58	7.36	6.75
x2 = 0.8828	5.7	5.6	5.23
x2 = 0.9272	4.37	4.24	3.84
x2 = 0.9543	3.31	3.2	2.98
x2 = 0.9772	2.7	2.56	2.33
